According to the NIST ThermoML archive (doi:10.1021/je0340248):

Key:
[1] = 101.33 kPa, Liquid
[2] = xn = mol fraction of the nth substance listed; conditions: 101 kPa, Liquid

OCCO [1,2-ethanediol]
[1]
Conditions | mass density [kg/m3] | speed of sound [m/s] | viscosity [mPa·s]
298.15 K | – | 1662 | 14.82
303.15 K | 1106.63 | – | –
308.15 K | – | 1635 | 10.48
313.15 K | 1099.64 | – | –

CC(O)CO (centres undefined) [1,2-propanediol]
[1]
Conditions | mass density [kg/m3] | speed of sound [m/s] | viscosity [mPa·s]
298.15 K | 1032.75 | 1492 | 43.43
303.15 K | 1029.02 | – | –
308.15 K | 1025.4 | 1454 | 24.24
313.15 K | 1021.53 | – | –

CC(=O)OCCC(C)C [3-methylbutyl ethanoate]
[1]
Conditions | mass density [kg/m3] | speed of sound [m/s] | viscosity [mPa·s]
298.15 K | 866.21 | 1195 | 0.781
303.15 K | 861.05 | – | –
308.15 K | 855.85 | 1154 | 0.747
313.15 K | 852.95 | – | –

CCCCOC(C)=O [butyl ethanoate]
[1]
Conditions | mass density [kg/m3] | speed of sound [m/s] | viscosity [mPa·s]
298.15 K | 876.19 | 1190 | 0.674
303.15 K | 871.27 | – | –
308.15 K | 865.43 | 1150 | 0.594
313.15 K | 860.48 | – | –

OCCOCCO [diethylene glycol]
[1]
Conditions | mass density [kg/m3] | speed of sound [m/s] | viscosity [mPa·s]
298.15 K | 1113.51 | 1580 | 30.01
303.15 K | 1109.56 | – | –
308.15 K | 1106.22 | 1550 | 16.97
313.15 K | 1103.02 | – | –

CCOC(C)=O [ethyl acetate]
[1]
Conditions | mass density [kg/m3] | speed of sound [m/s] | viscosity [mPa·s]
298.15 K | 894.55 | 1138 | 0.428
303.15 K | 888.48 | – | –
308.15 K | 882.5 | 1095 | 0.387
313.15 K | 875.97 | – | –

COC(C)=O [methyl ethanoate]
[1]
Conditions | mass density [kg/m3] | speed of sound [m/s] | viscosity [mPa·s]
298.15 K | 926.8 | 1150 | 0.384
303.15 K | 919.7 | – | –
308.15 K | 915.22 | 1103 | 0.351
313.15 K | 908.33 | – | –

COC(C)=O [methyl ethanoate] + OCCO
[2]
Conditions | mass density, 298.15 K [kg/m3] | mass density, 303.15 K [kg/m3] | mass density, 308.15 K [kg/m3] | mass density, 313.15 K [kg/m3] | speed of sound, 298.15 K [m/s] | speed of sound, 308.15 K [m/s] | viscosity, 298.15 K [mPa·s] | viscosity, 308.15 K [mPa·s]
x1 = 0.0444 | 1100.26 | 1096.48 | 1092.85 | 1089.11 | 1627 | 1600 | 11.86 | 8.678
x1 = 0.1488 | 1077.91 | 1073.64 | 1070.12 | 1065.97 | 1550 | 1521 | 7.177 | 5.649
x1 = 0.2505 | 1056.96 | 1052.6 | 1049.33 | 1045.05 | 1482 | 1452 | 4.535 | 3.788
x1 = 0.3485 | 1037.61 | 1033.23 | 1030.22 | 1025.91 | 1424 | 1391 | 2.996 | 2.623
x1 = 0.4411 | 1020.06 | 1015.63 | 1012.78 | 1008.44 | 1374 | 1338 | 2.078 | 1.882
x1 = 0.4856 | 1011.89 | 1007.39 | 1004.56 | 1000.19 | 1351 | 1315 | 1.758 | 1.614
x1 = 0.5507 | 1000.2 | 995.55 | 992.71 | 988.26 | 1320 | 1282 | 1.39 | 1.296
x1 = 0.6503 | 982.94 | 977.9 | 974.92 | 970.21 | 1276 | 1237 | 0.994 | 0.941
x1 = 0.7489 | 966.49 | 960.93 | 957.65 | 952.55 | 1237 | 1196 | 0.734 | 0.697
x1 = 0.8498 | 950.22 | 944.03 | 940.33 | 934.64 | 1199 | 1157 | 0.554 | 0.522
x1 = 0.9453 | 935.24 | 928.45 | 924.26 | 917.85 | 1167 | 1122 | 0.435 | 0.404

OCCOCCOCCO [triethylene glycol]
[1]
Conditions | mass density [kg/m3] | speed of sound [m/s] | viscosity [mPa·s]
298.15 K | 1119.59 | 1612 | 34.4
303.15 K | 1115.88 | – | –
308.15 K | 1111.96 | 1586 | 21.31
313.15 K | 1109.53 | – | –

OCCOCCOCCO [triethylene glycol] + CCCCOC(C)=O
[2]
Conditions | mass density, 298.15 K [kg/m3] | mass density, 303.15 K [kg/m3] | mass density, 308.15 K [kg/m3] | mass density, 313.15 K [kg/m3] | speed of sound, 298.15 K [m/s] | speed of sound, 308.15 K [m/s] | viscosity, 298.15 K [mPa·s] | viscosity, 308.15 K [mPa·s]
x2 = 0.0452 | 1108.89 | 1105.14 | 1101.13 | 1098.6 | 1586 | 1559 | 31.2 | 18.96
x2 = 0.1515 | 1083.49 | 1079.63 | 1075.41 | 1072.59 | 1524 | 1498 | 24.06 | 14.16
x2 = 0.2488 | 1060.06 | 1056.08 | 1051.65 | 1048.53 | 1470 | 1446 | 18.29 | 10.62
x2 = 0.3493 | 1035.73 | 1031.63 | 1026.98 | 1023.57 | 1420 | 1395 | 13.28 | 7.731
x2 = 0.4464 | 1012.14 | 1007.94 | 1003.07 | 999.41 | 1375 | 1350 | 9.402 | 5.575
x2 = 0.4953 | 1000.24 | 995.98 | 991.02 | 987.24 | 1355 | 1329 | 7.798 | 4.694
x2 = 0.5495 | 987.03 | 982.72 | 977.64 | 973.75 | 1334 | 1307 | 6.273 | 3.856
x2 = 0.6493 | 962.66 | 958.25 | 952.97 | 948.88 | 1298 | 1267 | 4.084 | 2.642
x2 = 0.7488 | 938.29 | 933.77 | 928.31 | 924.03 | 1265 | 1232 | 2.566 | 1.776
x2 = 0.8515 | 913.02 | 908.37 | 902.74 | 898.24 | 1233 | 1197 | 1.528 | 1.153
x2 = 0.9421 | 890.6 | 885.8 | 880.04 | 875.29 | 1207 | 1168 | 0.936 | 0.774

OCCOCCOCCO [triethylene glycol] + CCOC(C)=O
[2]
Conditions | mass density, 298.15 K [kg/m3] | mass density, 303.15 K [kg/m3] | mass density, 308.15 K [kg/m3] | mass density, 313.15 K [kg/m3] | speed of sound, 298.15 K [m/s] | speed of sound, 308.15 K [m/s] | viscosity, 298.15 K [mPa·s] | viscosity, 308.15 K [mPa·s]
x2 = 0.0466 | 1112.15 | 1108.39 | 1104.32 | 1101.76 | 1592 | 1567 | 30.14 | 18.65
x2 = 0.1482 | 1095.3 | 1091.27 | 1086.97 | 1084.07 | 1547 | 1523 | 22.05 | 13.71
x2 = 0.25 | 1077.4 | 1073.02 | 1068.55 | 1065.26 | 1499 | 1473 | 15.58 | 9.818
x2 = 0.3499 | 1058.65 | 1053.94 | 1049.34 | 1045.63 | 1452 | 1426 | 10.73 | 6.905
x2 = 0.4493 | 1038.63 | 1033.67 | 1028.96 | 1024.82 | 1408 | 1379 | 7.167 | 4.749
x2 = 0.4995 | 1027.95 | 1022.9 | 1018.12 | 1013.77 | 1386 | 1356 | 5.775 | 3.896
x2 = 0.5503 | 1016.71 | 1011.6 | 1006.75 | 1002.18 | 1363 | 1333 | 4.602 | 3.168
x2 = 0.6497 | 993.4 | 988.21 | 983.2 | 978.19 | 1318 | 1286 | 2.881 | 2.076
x2 = 0.749 | 968.18 | 962.95 | 957.73 | 952.29 | 1271 | 1236 | 1.748 | 1.329
x2 = 0.8503 | 940.27 | 934.9 | 929.41 | 923.53 | 1220 | 1181 | 1.015 | 0.823
x2 = 0.9417 | 913.03 | 907.33 | 901.55 | 895.28 | 1171 | 1130 | 0.604 | 0.523

OCCOCCOCCO [triethylene glycol] + COC(C)=O
[2]
Conditions | mass density, 298.15 K [kg/m3] | mass density, 303.15 K [kg/m3] | mass density, 308.15 K [kg/m3] | mass density, 313.15 K [kg/m3] | speed of sound, 298.15 K [m/s] | speed of sound, 308.15 K [m/s] | viscosity, 298.15 K [mPa·s] | viscosity, 308.15 K [mPa·s]
x2 = 0.0455 | 1115.19 | 1111.41 | 1107.51 | 1105.03 | 1598 | 1572 | 32.01 | 19.45
x2 = 0.1522 | 1103.73 | 1099.72 | 1095.8 | 1093.05 | 1559 | 1533 | 25.74 | 15.15
x2 = 0.2512 | 1091.78 | 1087.49 | 1083.5 | 1080.38 | 1521 | 1493 | 19.76 | 11.49
x2 = 0.3504 | 1078.53 | 1073.91 | 1069.84 | 1066.3 | 1482 | 1452 | 14.27 | 8.336
x2 = 0.4457 | 1064.43 | 1059.49 | 1055.35 | 1051.39 | 1446 | 1414 | 9.869 | 5.882
x2 = 0.49 | 1057.35 | 1052.25 | 1048.08 | 1043.93 | 1428 | 1396 | 8.158 | 4.935
x2 = 0.5519 | 1046.77 | 1041.46 | 1037.27 | 1032.85 | 1402 | 1369 | 6.128 | 3.806
x2 = 0.6512 | 1027.79 | 1022.13 | 1017.92 | 1013.08 | 1357 | 1323 | 3.687 | 2.422
x2 = 0.7516 | 1005.3 | 999.28 | 995.06 | 989.76 | 1305 | 1268 | 2.075 | 1.467
x2 = 0.8513 | 978.49 | 972.08 | 967.82 | 962.01 | 1246 | 1206 | 1.103 | 0.854
x2 = 0.9424 | 948.8 | 941.98 | 937.63 | 931.21 | 1188 | 1143 | 0.587 | 0.501
